Legend:
Assay in all cases: relative viability (nuclei count vs DMSO), 5 days (fraction); higher = more cells survive
[1] = compound: CC1=C(C(=NN1)C)CC2=C(C3=C(S2)N(C(=O)N(C3=O)C)CC(C)C)C(=O)N4C[C@@H](CO4)O + COc1cccc2cc(-c3nc([C@H]4CC[C@H](C(=O)O)CC4)n4ncnc(N)c34)[nH]c12 [OSI-027] (partner 0.5 µM)
Procedure, shortened: (§1)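 Relative viability equals treated-well nuclei counts divided by vehicle-well nuclei counts. Counts came from 4× images of lung cancer cell lines grown in 1536-well plates for 5 days after pin-tool dosing on the day after seeding. Dosing used one drug alone or a fixed anchor-drug dose plus five library-drug doses (not always all listed) in √10 steps, and values are medians of duplicate plates.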

[2] = compound: CC1=C(C(=NN1)C)CC2=C(C3=C(S2)N(C(=O)N(C3=O)C)CC(C)C)C(=O)N4C[C@@H](CO4)O + C[C@]1(O)C[C@@H](c2nc(-c3ccc4ccc(-c5ccccc5)nc4c3)c3c(N)nccn32)C1 [Linsitinib] (partner 1 µM)
Procedure, shortened: as §1

[3] = compound: CC1=C(C(=NN1)C)CC2=C(C3=C(S2)N(C(=O)N(C3=O)C)CC(C)C)C(=O)N4C[C@@H](CO4)O + N=C(N)NC(=N)NCCc1ccccc1 [Phenformin] (partner 250 µM)
Procedure, shortened: as §1

IDH-C35 + Luminespib = compound: Cc1ccccc1C(C(=O)NC1CCCCC1)N(C(=O)Cn1ccnc1C)c1cccc(F)c1 [IDH-C35] + CCNC(=O)c1noc(-c2cc(C(C)C)c(O)cc2O)c1-c1ccc(CN2CCOCC2)cc1 [Luminespib] (partner 0.01 µM)
Procedure, shortened: as §1

| Cell Line | relative viability ([1]; first compound 0.0025 µM) | relative viability ([1]; first compound 0.007906 µM) | relative viability ([1]; first compound 0.025 µM) | relative viability ([1]; first compound 0.07906 µM) | relative viability ([1]; first compound 0.25 µM) | relative viability ([2]; first compound 0.0025 µM) | relative viability ([2]; first compound 0.007906 µM) | relative viability ([2]; first compound 0.025 µM) | relative viability ([2]; first compound 0.07906 µM) | relative viability ([2]; first compound 0.25 µM) | relative viability ([3]; first compound 0.0025 µM) | relative viability ([3]; first compound 0.007906 µM) | relative viability ([3]; first compound 0.025 µM) | relative viability ([3]; first compound 0.07906 µM) | relative viability ([3]; first compound 0.25 µM) | relative viability (IDH-C35 + Luminespib; first compound 0.08 µM) | relative viability (IDH-C35 + Luminespib; first compound 0.253 µM) | relative viability (IDH-C35 + Luminespib; first compound 0.8 µM) | relative viability (IDH-C35 + Luminespib; first compound 2.53 µM) | relative viability (IDH-C35 + Luminespib; first compound 8 µM) |
| --- | --- | --- | --- | --- | --- | --- | --- | --- | --- | --- | --- | --- | --- | --- | --- | --- | --- | --- | --- | --- |
| A-427 | 0.444 | 0.569 | 0.425 | 0.549 | 0.477 | 1.09 | 1.22 | 1.08 | 1.08 | 1.14 | 0.301 | 0.264 | 0.24 | 0.375 | 0.349 | 0.914 | 0.892 | 0.785 | 0.87 | 0.852 |
| NCI-H1792 | 0.739 | 0.816 | 0.717 | 0.645 | 0.652 | 0.722 | 0.541 | 0.487 | 0.402 | 0.344 | 0.259 | 0.173 | 0.127 | 0.172 | 0.155 | 0.477 | 0.473 | 0.499 | 0.413 | 0.493 |
| LCLC-97TM1 | 0.665 | 0.515 | 0.513 | 0.548 | 0.564 | 0.183 | 0.206 | 0.205 | 0.163 | 0.159 | 0.483 | 0.432 | 0.429 | 0.477 | 0.51 | 0.842 | 0.734 | 0.682 | 0.738 | 0.604 |
| LCLC-103H | 0.529 | 0.466 | 0.467 | 0.496 | 0.512 | 1.07 | 1.15 | 1.18 | 0.835 | 1.12 | 0.329 | 0.367 | 0.393 | 0.341 | 0.317 | 0.93 | 0.999 | 0.95 | 0.959 | 0.859 |
| PC-3 [JPC-3] | 0.763 | 0.679 | 0.755 | 0.785 | 0.859 | 0.966 | 0.945 | 0.974 | 0.958 | 1.01 | 0.467 | 0.461 | 0.477 | 0.461 | 0.447 | 0.737 | 0.596 | 0.728 | 0.771 | 0.692 |
| BEN | 0.31 | 0.293 | 0.357 | 0.317 | 0.292 | 0.932 | 0.79 | 0.762 | 0.663 | 0.862 | 0.223 | 0.166 | 0.221 | 0.18 | 0.206 | 0.373 | 0.391 | 0.311 | 0.425 | 0.333 |
| NCI-H1666 | 0.881 | 0.927 | 0.811 | 0.8 | 0.944 | 0.834 | 0.839 | 1.06 | 0.884 | 0.847 | 0.571 | 0.621 | 0.548 | 0.538 | 0.593 | 0.984 | 0.979 | 1.04 | 1.04 | 1 |
| LC-2-ad | 0.952 | 0.782 | 0.973 | 0.934 | 0.821 | 0.848 | 0.928 | 0.9 | 0.869 | 0.843 | 0.604 | 0.59 | 0.528 | 0.573 | 0.648 | 1.05 | 1.04 | 0.962 | – | 0.939 |

From the supplement of paper PMC10307832
